According to patent US20130259884A1, “PEPTIDES” ([…] SL, priority 2010, published 2013):
Where a SMILES comes first, the peptide text is derived from it.

Assay: Water solubility of peptides when preparing stock solutions
Format: physicochemical
Details: stock solution in sterile distilled water or 100% DMSO; read-out: solubility of peptide (water soluble or water insoluble, dissolved in DMSO)
Procedure: For challenge, peptides were administered as follows: • Individual peptides (soluble). Individual water soluble peptides were dissolved as 10, 5 or 2.5 mg/ml stock solutions in sterile distilled water. Before use, each peptide was diluted in water to 2 mg/ml and 10 μl of this 2 mg/ml mix was added to 990 μl of media. Then 100 μl of this peptide/media mix was added to 100 μl of media containing 350,000 PBMC in an ELISPOT anti-IL-4 coated cell culture plate well for a final peptide concentration of 10 μg/ml. Identically diluted media only was added to the cells and used for the no peptide media control wells (media only). • Individual peptides (DMSO). Individual water insoluble peptides were dissolved in 100% DMSO to a stock concentration of 50 mg/ml. Before use each peptide was diluted in water to 2 mg/ml and then 10 μl of the 2 mg/ml mix was added to 990 μl of cell-culture media. Then 100 μl of this peptide/media mix was added to 100 μl of media containing 350,000 PBMC in an ELISPOT anti-IL-4 coated cell culture plate well for a final peptide concentration of 10 μg/ml. Identically diluted media only was added to the cells and used for the no peptide media control wells (media only). • A combination preparation containing Alt a 1 soluble peptides (33.2, 34.3, 35.4, 35.5, 37.3.1, 37.4.1, L6-5.01, L10-1.01, L10-2.01, L10-3), called Alt a 1 Sol. Each peptide was diluted from water stock to 2 mg/ml in sterile distilled water. Then 10 μl of each peptide required for the combined preparation was mixed and brought up to 1 ml in media. Then 100 μl of this peptide/media mix was added to 100 μl of media containing 350,000 PBMC in an ELISPOT anti-IL-4 coated cell culture plate well for a final concentration of each peptide of 10 μg/ml. Identically diluted media only was used for the no peptide control wells (media only). • A combination preparation containing Alt a 1 DMSO peptides (32.2.1, 38.2.1, 35.2, 35.3, L6-2, L6-3, L6-4, 38.3, 37.2), called Alt a 1 DMSO. Each peptide was diluted from DMSO stock to 2 mg/ml in sterile distilled water. Then 10 μl of each peptide required for the combined preparation was mixed and brought up to 1 ml in media. Then 100 μl of this peptide/media mix is added to 100 μl of media containing 350,000 PBMC in an ELISPOT anti-IL-4 coated cell culture plate well for a final concentration of each peptide of 10 μg/ml. Identically diluted media only was used for the no peptide control wells (media only). • A combination preparation containing non-Alt a 1 soluble peptides (40.2, 41.2, 43.2, 44.2, 46.2, 47.2.1, 56.2, 57.2.1, 60.2, 62.2.1, 67.2, 71.3), called Alt a Other Sol. Each peptide was diluted from water stock to 2 mg/ml in sterile distilled water. Then 10 μl of each peptide required for the combined preparation was mixed and brought up to 1 ml in media, Then 100 μl of this peptide/media mix was added to 100 μl of media containing 350,000 PBMC in an ELISPOT anti-IL-4 coated cell culture plate well for a final concentration of each peptide at 10 μg/ml. Identically diluted media only was used for the no peptide control wells (media only). • A combination preparation containing non-Alt a 1 DMSO peptides (39.2, 42.2, 45.2, 48.2.1, 50.2, 51.2.1, 61.2.1, 66.3.1, 68.2.1, 70.2, 71.2, 72.2), called Alt a Other DMSO. Each peptide was diluted from DMSO stock to 2 mg/ml in sterile distilled water. Then 10 ul of each peptide required for the combined preparation was mixed and brought up to 1 ml in media, Then 100 μl of this peptide/media mix was added to 100 μl of media containing 350,000 PBMC in an ELISPOT anti-IL-4 coated cell culture plate well for a final concentration of each peptide at 10 μg/ml. Identically diluted media only was used for the no peptide control wells (media only).

For `CC(C)C[C@H](NC(=O)[C@@H](NC(=O)CNC(=O)[C@H](Cc1c[nH]c2ccccc12)NC(=O)CNC(=O)[C@H](C)NC(=O)CN)C(C)C)C(=O)N[C@H](C(=O)N[C@@H](CO)C(=O)N[C@@H](Cc1c[nH]cn1)C(=O)N[C@@H](CCCNC(=N)N)C(=O)N[C@@H](CO)C(=O)NCC(=O)N[C@@H](CCC(=O)O)C(=O)N[C@H](C(=O)O)[C@@H](C)O)C(C)C` [Peptide 62.2.1, GAGWGVLVSHRSGET] (H-GAGWGVLVSHRSGET-OH), which solubility is on record?
Its solubility is over 2500 µg/mL.

For `CC(C)C[C@H](NC(=O)[C@H](CC(N)=O)NC(=O)[C@H](C)NC(=O)[C@H](CC(C)C)NC(=O)[C@H](CC(C)C)NC(=O)[C@H](CO)NC(=O)[C@H](Cc1ccccc1)NC(=O)[C@H](C)NC(=O)[C@@H](NC(=O)[C@H](CCCCN)NC(=O)[C@H](Cc1ccc(O)cc1)NC(=O)CNC(=O)[C@H](CC(C)C)NC(=O)[C@@H]1CCCN1C(=O)[C@@H](N)C(C)C)[C@@H](C)O)C(=O)O` [Peptide 66.3.1, VPLGYKTAFSLLANL] (H-VPLGYKTAFSLLANL-OH), which solubility is on record?
The solubility was under 2500 µg/mL.

With `CC[C@H](C)[C@H](NC(=O)[C@H](CC(=O)O)NC(=O)[C@H](CCC(N)=O)NC(=O)[C@@H]1CCCN1C(=O)[C@@H](NC(=O)[C@H](Cc1ccccc1)NC(=O)[C@H](CC(=O)O)NC(=O)[C@H](CO)NC(=O)[C@@H](N)CC(C)C)C(C)C)C(=O)N[C@@H](CCC(N)=O)C(=O)N[C@@H](CCCCN)C(=O)N[C@@H](CC(C)C)C(=O)N[C@@H](Cc1c[nH]c2ccccc12)C(=O)N[C@@H](Cc1c[nH]cn1)C(=O)N[C@@H](CO)C(=O)O` [Peptide 67.2, LSDFVPQDIQKLWHS] (H-LSDFVPQDIQKLWHS-OH) as the compound, how does the solubility read?
Its solubility is over 2500 µg/mL.

With `CC(C)[C@H](NC(=O)[C@H](Cc1ccc(O)cc1)NC(=O)[C@H](CO)NC(=O)[C@H](CO)NC(=O)[C@H](C)NC(=O)[C@H](CC(=O)O)NC(=O)[C@H](CO)NC(=O)[C@H](C)NC(=O)[C@H](Cc1ccccc1)NC(=O)[C@H](Cc1ccc(O)cc1)NC(=O)[C@@H](NC(=O)[C@H](Cc1ccc(O)cc1)NC(=O)[C@H](C)NC(=O)CNC(=O)[C@@H](N)CCCCN)C(C)C)C(=O)O` [Peptide 68.2.1, KGAYVYFASDASSYV] (H-KGAYVYFASDASSYV-OH) as the compound, how does the solubility read?
Its solubility is under 2500 µg/mL.

For `CC[C@H](C)[C@H](NC(=O)[C@H](Cc1ccccc1)NC(=O)[C@H](Cc1ccc(O)cc1)NC(=O)CNC(=O)[C@H](CCCCN)NC(=O)[C@@H](N)CC(=O)O)C(=O)N[C@@H](CCC(=O)O)C(=O)N1CCC[C@H]1C(=O)N[C@H](C(=O)N[C@H](C(=O)N[C@@H](Cc1ccccc1)C(=O)N[C@@H](CO)C(=O)N[C@@H](CC(N)=O)C(=O)N[C@H](C(=O)N[C@H](C(=O)O)[C@@H](C)O)C(C)C)[C@@H](C)CC)[C@@H](C)O` [Peptide 70.2, DKGYFIEPTIFSNVT] (H-DKGYFIEPTIFSNVT-OH; N-terminus and C-terminus assumed), which solubility is on record?
Its solubility is under 2500 µg/mL.

Which solubility does the source give for `CC[C@H](C)[C@H](NC(=O)[C@H](CO)NC(=O)[C@@H](NC(=O)[C@@H](NC(=O)[C@H](CCCCN)NC(=O)[C@@H](NC(=O)[C@H](CCC(N)=O)NC(=O)[C@@H](NC(=O)[C@H](Cc1ccc(O)cc1)NC(=O)[C@H](CC(N)=O)NC(=O)[C@H](CC(=O)O)NC(=O)[C@@H](N)CC(C)C)[C@@H](C)CC)[C@@H](C)O)[C@@H](C)O)C(C)C)C(=O)N[C@@H](CCCNC(=N)N)C(=O)N[C@@H](CC(C)C)C(=O)NCC(=O)O` [Peptide 71.2, LDNYIQTKTVSIRLG] (H-LDNYIQTKTVSIRLG-OH) here?
Its solubility is under 2500 µg/mL.

Which solubility does the source give for `CC[C@H](C)[C@H](NC(=O)[C@H](CO)NC(=O)[C@@H](NC(=O)[C@@H](NC(=O)[C@H](CCCCN)NC(=O)[C@@H](NC(=O)[C@@H](N)CCC(N)=O)[C@@H](C)O)[C@@H](C)O)C(C)C)C(=O)N[C@@H](CCCNC(=N)N)C(=O)N[C@@H](CC(C)C)C(=O)NCC(=O)N[C@@H](CC(=O)O)C(=O)N[C@H](C(=O)N[C@@H](CC(C)C)C(=O)N[C@@H](Cc1ccccc1)C(=O)NCC(=O)O)C(C)C` [Peptide 71.3, QTKTVSIRLGDVLFG] (H-QTKTVSIRLGDVLFG-OH) here?
The solubility was over 2500 µg/mL.

With `CC(C)C[C@H](NC(=O)[C@H](CCC(N)=O)NC(=O)[C@H](Cc1c[nH]c2ccccc12)NC(=O)[C@H](Cc1c[nH]cn1)NC(=O)[C@H](CC(C)C)NC(=O)[C@@H](NC(=O)[C@H](CC(N)=O)NC(=O)[C@H](Cc1ccc(O)cc1)NC(=O)[C@H](CO)NC(=O)[C@H](CC(N)=O)NC(=O)[C@@H](NC(=O)[C@H](Cc1c[nH]c2ccccc12)NC(=O)[C@@H](NC(=O)[C@@H](NC(=O)CN)[C@@H](C)O)C(C)C)C(C)C)[C@@H](C)O)C(=O)O` [Peptide 72.2, GTVWVNSYNTLHWQL] (H-GTVWVNSYNTLHWQL-OH) as the compound, how does the solubility read?
Its solubility is under 2500 µg/mL.

Which solubility does the source give for `CC[C@H](C)[C@H](N)C(=O)N[C@@H](C)C(=O)N[C@@H](CO)C(=O)N[C@@H](CC(C)C)C(=O)N[C@@H](Cc1ccccc1)C(=O)N[C@@H](C)C(=O)N[C@@H](C)C(=O)N[C@@H](C)C(=O)NCC(=O)N[C@@H](CC(C)C)C(=O)N[C@@H](C)C(=O)N[C@@H](C)C(=O)N[C@@H](C)C(=O)N[C@@H](C)C(=O)N1CCC[C@H]1C(=O)O` [Peptide L6-2, IASLFAAAGLAAAAP] here?
Its solubility is under 2500 µg/mL.

For `CC(C)C[C@H](NC(=O)[C@@H]1CCCN1C(=O)[C@H](C)NC(=O)[C@H](C)NC(=O)[C@H](C)NC(=O)[C@H](C)NC(=O)[C@H](CC(C)C)NC(=O)CNC(=O)[C@H](C)NC(=O)[C@H](C)NC(=O)[C@H](C)NC(=O)[C@H](Cc1ccccc1)NC(=O)[C@H](CC(C)C)NC(=O)[C@H](CO)NC(=O)[C@H](C)N)C(=O)O` [Peptide L6-3, ASLFAAAGLAAAAPL] (H-ASLFAAAGLAAAAPL-OH), which solubility is on record?
Its solubility is under 2500 µg/mL.

Which solubility does the source give for `CC[C@H](C)[C@H](NC(=O)[C@H](CC(N)=O)NC(=O)[C@H](Cc1ccccc1)NC(=O)CNC(=O)[C@H](CC(C)C)NC(=O)[C@H](CO)NC(=O)[C@H](CC(N)=O)NC(=O)[C@H](Cc1ccc(O)cc1)NC(=O)[C@H](Cc1ccc(O)cc1)NC(=O)[C@@H](NC(=O)CN)[C@@H](C)O)C(=O)N[C@@H](CCCCN)C(=O)N[C@@H](C)C(=O)N[C@H](C(=O)N[C@@H](CC(N)=O)C(=O)O)[C@@H](C)O` [Peptide L6-4, GTYYNSLGFNIKATN] (H-GTYYNSLGFNIKATN-OH) here?
The solubility was under 2500 µg/mL.

Which solubility does the source give for `CC(C)C[C@H](N)C(=O)N1CCC[C@H]1C(=O)N[C@@H](CC(N)=O)C(=O)N[C@@H](Cc1ccc(O)cc1)C(=O)N[C@H](C(=O)N[C@@H](CCCNC(=N)N)C(=O)N[C@@H](C)C(=O)NCC(=O)NCC(=O)N[C@@H](CC(N)=O)C(=O)NCC(=O)N1CCC[C@H]1C(=O)N[C@@H](CCCCN)C(=O)N[C@@H](CC(=O)O)C(=O)N[C@@H](Cc1ccccc1)C(=O)O)C(C)C` [Peptide L6-5.01, LPNYVRAGGNGPKDF] (H-LPNYVRAGGNGPKDF-OH) here?
The solubility was over 2500 µg/mL.

With `CC(C)C[C@H](NC(=O)[C@H](CCCCN)NC(=O)[C@H](CC(=O)O)NC(=O)[C@H](C)NC(=O)[C@H](CCC(N)=O)NC(=O)[C@H](C)NC(=O)[C@H](CO)NC(=O)[C@@H](NC(=O)[C@@H](NC(=O)[C@H](Cc1ccccc1)NC(=O)[C@H](CC(=O)O)NC(=O)[C@H](CC(C)C)NC(=O)[C@@H](NC(=O)CNC(=O)CN)[C@@H](C)O)[C@@H](C)O)C(C)C)C(=O)O` [Peptide L10-1.01, GGTLDFTVSAQADKL] (H-GGTLDFTVSAQADKL-OH) as the compound, how does the solubility read?
Its solubility is over 2500 µg/mL.
